Measurements: paper PMC10848209, “A Comparative Study on the Complexation of the Anticancer Iron Chelator VLX600 with Essential Metal Ions” (Inorganic Chemistry, 2024)

Assays:
[1] = parameters: method as in PMID 30236787; details: vs NHE; cited from earlier work
[2] = test system: A549 non-small-cell lung cancer cells; assay: MTT cytotoxicity assay, A549; details: read-out: IC50 A549, 3 × 10^3 cells, 96 h exposure
Description: (§1) CH1/PA-1 (provided by L.R. Kelland, CRC Centre for Cancer Therapeutics, Institute of Cancer Research, Sutton, UK; confirmed by STR profiling as PA-1 ovarian teratocarcinoma cells at Multiplexion, Heidelberg, Germany), SW480 colon carcinoma, and A549 non-small-cell lung cancer cells (both obtained from the American Type Culture Collection, Manassas, VA, USA) were maintained in a minimal essential medium (MEM) supplemented with 1 mM sodium pyruvate, 4 mM L-glutamine, 1% (v/v) nonessential amino acids from 100-fold stock (all purchased from Sigma-Aldrich), and 10% heat-inactivated fetal bovine serum (FBS; BioWest, Nuaillé, France).
(§2) Cells were grown as monolayers in 75 cm^2 culture flasks (Starlab, Hamburg, Germany) at 37 °C in a humidified atmosphere containing 5% CO2.
(§3) The cytotoxic activity of the compounds was determined by the 3-(4,5-dimethylthiazol-2-yl)-2,5-diphenyl-2H-tetrazolium bromide (MTT) assay (obtained from Acros Organics, Geel, Belgium) in at least three independent experiments. A total of 1 × 10^3 CH1/PA-1, 2 × 10^3 SW480, and 3 × 10^3 A549 cells were seeded at 100 μL per well into 96-well microculture plates (Starlab, Hamburg, Germany) 24 h before a treatment with the test compounds for a period of 96 h. […] In the case of the metal complexes, we first mixed the ligand and the aqueous metal salt solution (c = 10 mM) in the appropriate ratio followed by dilution with the medium.
(§4) CH1/PA-1, SW480, and A549 cells were treated with 100 μL/well of the test compounds serially diluted in complete MEM. […] After 4 h incubation, the MTT-containing medium was replaced with 150 μL DMSO per well to dissolve the formazan product formed by viable cells.
(§5) The IC50 values, i.e., the concentrations resulting in half the number of viable cells relative to untreated controls, were interpolated from concentration–effect curves of at least three independent experiments.

[3] = test system: SW480 colon carcinoma cells; assay: MTT cytotoxicity assay, SW480; details: read-out: IC50 SW480, 2 × 10^3 cells, 96 h exposure
Description: as §1, §2, §3, §4, §5

[4] = test system: MCF-7 breast cancer cells; assay: MTT cytotoxicity assay, MCF-7; details: read-out: IC50 MCF-7, 10^4 cells, 72 h exposure
Description: as §2
(§6) The cytotoxic activity of the compounds was determined by the 3-(4,5-dimethylthiazol-2-yl)-2,5-diphenyl-2H-tetrazolium bromide (MTT) assay (obtained from Acros Organics, Geel, Belgium) in at least three independent experiments. […] Furthermore, 1 × 10^4 cells of Colo205, Colo320, and MCF-7 as well as MRC-5 were seeded overnight prior to the assay with 72 h exposure to the compounds tested. […] In the case of the metal complexes, we first mixed the ligand and the aqueous metal salt solution (c = 10 mM) in the appropriate ratio followed by dilution with the medium. The metal salts dissolved in the same way were also tested.
(§7) MTT assays with the cell lines Colo205, Colo320, MCF-7, and MRC-5 were performed after addition of the substances and a subsequent 72 h incubation time. At the end of the incubation period, 20 μL of the MTT solution (from a stock solution of 5 mg/mL) was added to each well. After the staining, the plates were incubated at 37 °C for 4 h, then 100 μL of SDS solution (10% in 0.01 M HCI) was added to each well, and the plates were incubated at 37 °C overnight. The optical density (OD) was determined at 540/630 nm with a Multiscan EX ELISA reader (Thermo Labsystems).
as §5

[5] = test system: MRC-5 normal embryonal lung fibroblasts; assay: MTT cytotoxicity assay, MRC-5; details: read-out: IC50 MRC-5, 10^4 cells, 72 h exposure, nontumoral fibroblasts
Description: as §2, §6, §7, §5

[6] = test system: Colo205 colon adenocarcinoma cells; assay: MTT cytotoxicity assay, Colo205; details: read-out: IC50 Colo205, 10^4 cells, 72 h exposure
Description: as §2, §6, §7, §5

[7] = test system: Colo320 (doxorubicin-resistant) colon adenocarcinoma cells; assay: MTT cytotoxicity assay, Colo320; details: read-out: IC50 Colo320, 10^4 cells, 72 h exposure
Description: as §2, §6, §7, §5

[8] = test system: CH1/PA-1 ovarian teratocarcinoma cells; assay: MTT cytotoxicity assay, CH1/PA-1; details: read-out: IC50 CH1/PA-1, 10^3 cells, 96 h exposure
Description: as §1, §2, §3, §4, §5

Structure (SMILES) | redox potential of the Fe(III)/Fe(II) complexes of the ligand [1] | IC50 [2] [µM] | IC50 [3] [µM] | IC50 [4] [µM] | IC50 [5] [µM] | IC50 [6] [µM] | IC50 [7] [µM] | IC50 [8] [µM]
c1cnc2c(c1)ccc1cccnc12 [1,10-phenantroline] | +1130 mV |  |  |  |  |  |  | 
c1ccc(-c2ccccn2)nc1 [2,2-bipiyridine] | +1100 mV |  |  |  |  |  |  | 
[Cl][Cu][Cl] [CuCl2] |  | 142 ± 16 | 154 ± 21 | > 10 | > 10 | > 10 | > 10 | 28 ± 5
[Cl][Fe]([Cl])[Cl] [FeCl3] |  | > 200 | > 200 | > 10 | > 10 | > 10 | > 10 | > 200
[Cl-].[Cl-].[Zn+2] [ZnCl2] |  | 123 ± 9 | 125 ± 16 | > 10 | > 10 | > 10 | > 10 | 66 ± 3
O=C(O)c1ccc(-n2nc(-c3ccccc3O)nc2-c2ccccc2O)cc1 [deferasirox] | −400 mV |  |  |  |  |  |  | 
Cc1c(O)c(=O)ccn1C [deferiprone] | −620 mV |  |  |  |  |  |  | 
CC(=O)N(O)CCCCCNC(=O)CCC(=O)N(O)CCCCCNC(=O)CCC(=O)N(O)CCCCCN [deferoxamine B] | −450 mV |  |  |  |  |  |  | 
